Test results published in patent US9499493B2, “2,4-pyrimidinediamine compounds and their uses” (Rigel Pharmaceuticals, Inc., priority 2002, dated 2016).

Tests used:
[1] = test system: cultured human mast cells (CHMC); assay: CHMC low cell density IgE activation: tryptase assay; format: cell-based; details: anti-IgE
Procedure, shortened: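 Cultured human mast cells (1000-1500 cells/well, donor-dependent) equilibrated 1 hr at 37° C, then stimulated with anti-IgE for 30 min at 37° C. Tryptase released into the supernatant is measured with a fluorogenic tryptase substrate after 30 min at room temperature.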

[2] = test system: cultured human mast cells (CHMC); assay: CHMC low cell density ionomycin activation: tryptase assay; format: cell-based
[3] = test system: cultured human mast cells (CHMC); assay: CHMC high cell density IgE activation: hexos (hexosaminidase) release; format: cell-based; details: anti-IgE activation
Protocol: (§1) Inhibition of degranulation was measured at both low and high cell density by quantifying the release of the granule specific factors tryptase, histamine and hexosaminidase. Inhibition of release and/or synthesis of lipid mediators was assessed by measuring the release of leukotriene LTC4 and inhibition of release and/or synthesis of cytokines was monitored by quantifying TNF-α, IL-6 and IL-13. Tryptase and hexosaminidase were quantified using fluorogenic substrates as described in their respective examples. […] The protocols of the various assays are provided below.
(§2) After sensitizing, cells are counted, pelleted (1000 rpm, 5-10 minutes), and resuspended at 1-2×10^6 cells/ml in MT buffer. Add 100 ul of cell suspension to each well and 100 ul of compound dilutions. The final vehicle concentration is 0.5% DMSO. Incubate at 37° C. (5% CO2) for 1 hour. After 1 hour of compound treatment, stimulate cells with 6× anti-IgE. Mix wells with the cells and allow plates to incubate at 37° C. (5% CO2) for one hour. After 1 hour incubation, pellet cells (10 minutes, 1000 RPM) and collect 200 ul per well of the supernatant, being careful not to disturb pellet. Place the supernatant plate on ice. During the 7-hour step (see next) perform tryptase assay on supernatant that had been diluted 1:500. Resuspend cell pellet in 240 ul of CM media containing 0.5% DMSO and corresponding concentration of compound. Incubate CHMC cells for 7 hours at 37° C. (5% CO2). After incubation, pellet cells (1000 RPM, 10 minutes) and collect 225 ul per well and place in −80° C. until ready to perform ELISAS. ELISAS are performed on appropriately diluted samples (determined empirically for each donor cell population so that the sample measurement falls within the standard curve) following the supplier's instructions.

[4] = test system: cultured human mast cells (CHMC); assay: CHMC high cell density IgE activation: tryptase; format: cell-based; details: anti-IgE activation
Protocol: as §2

[5] = test system: cultured human mast cells (CHMC); assay: CHMC high cell density IgE activation: histamine; format: cell-based; details: anti-IgE activation
Protocol: as §1, §2

[6] = test system: cultured human mast cells (CHMC); assay: CHMC high cell density IgE activation: TNFalpha; format: cell-based; details: anti-IgE activation; read-out: CHMC high density TNF-alpha
Protocol: as §1, §2

[7] = test system: cultured human mast cells (CHMC); assay: CHMC high cell density IgE activation: IL-13; format: cell-based; details: anti-IgE activation
Protocol: as §1, §2

[8] = test system: cultured human mast cells (CHMC); assay: CHMC high cell density IgE activation: LTC4; format: cell-based; details: anti-IgE activation
Protocol: as §1, §2

[9] = test system: cultured human mast cells (CHMC); assay: CHMC low cell density IgE activation: LTC4 assay; format: cell-based; details: anti-IgE
Protocol: Pellet CHMC cells (980 rpm, 10 min) and resuspend in pre-warmed MT. Add 65 ul of cells to each 96-well plate. Depending on the degranulation activity for each particular CHMC donor, load 1000-1500 cells/well. Mix four times followed by a 1 hr incubation at 37° C. […] Stimulate cells by adding 25 ul of 6× anti-IgE solution to the appropriate plates. Add 25 ul MT to un-stimulated control wells. Mix twice following addition of the anti-IgE. Incubate at 37° C. for 30 minutes. […] Spin plates at 1000 rpm for 10 min to pellet cells. Transfer 25 ul of supernatant to a 96-well black bottom plate and add 100 ul of freshly diluted tryptase substrate solution to each well. Incubate plates at room temperature for 30 min.
Leukotriene C4 (LTC4) is also quantified using an ELISA kit on appropriately diluted supernatant samples (determined empirically for each donor cell population so that the sample measurement falls within the standard curve) following the supplier's instructions.

Jurkat cells = assay: Jurkat (T-cell) toxicity, light scatter; format: cell-based; details: 18-24 hr incubation; read-out: Toxicity Jurkat Light Scat.
Protocol: Dilute Jurkat cells to 2×10^5 cells/ml in complete RPMI (10% heat-inactivated fetal bovine serum) media and incubate at 37° C., 5% CO2 for 18 hours. Add 65 ul cells at 7.7×10^5 cells/ml to a 96-well V-bottom plate (TC-treated, Costar) containing 65 ul 2× compound (final vehicle concentration is 0.5% DMSO, 1.5% MeOH). Mix, incubate plates for 18-24 hr at 37° C., 5% CO2. Toxicity was assessed by flow cytometric analysis of cellular light scatter

B-cell line BJAB = assay: BJAB (B-cell) toxicity, light scatter; format: cell-based; details: read-out: Toxicity BJAB Light Scat.
Protocol: The B-cell line BJAB was cultured in log phase in RPMI1640+10% heat-inactivated fetal bovine serum, 1× L-glutamine, 1× penicillin, 1× […] and 1× beta-mercaptoethanol at 37° C., 5% CO2. First, BJABs were harvested, spun and resuspended in culture medium to a concentration of 7.7×10^5 cells/mL. 65 uL cells were mixed with 65 uL compound, in duplicate and in the presence of 0.1% DMSO in a V-bottomed 96-well tissue culture plate. Cells were incubated with compound at various dilutions at 37° C., 5% CO2. Toxicity was assessed by flow cytometric analysis of cellular light scatter.

[10] = Pharmacokinetics / oral bioavailability in rats; format: in vivo; details: rats
Protocol: Over 50 2,4-pyrimidinediamine compounds of the invention were tested for oral bioavailability. For the study, compounds were dissolved in various vehicles (e.g. PEG 400 solution and CMC suspension) for intravenous and oral dosing in the rats. Following administration of the drug, plasma samples were obtained and extracted. The plasma concentrations of the compounds were determined by high performance liquid chromatography/tandem mass spectrometry (LC/MS/MS) methods. Pharmacokinetic analyses were performed based on the plasma concentration data. The pharmacokinetic parameters of interest include Clearance (CL), Volume of distribution at steady-state (Vss), terminal half-life (t1/2), and oral bioavailability (% F).

Cc1cc(Nc2nc(Nc3cccc(OCC(=O)N4CCNCC4)c3)ncc2F)cc(C)c1O [R945140, N4-(3,5-Dimethyl-4-hydroxyphenyl)-5-fluoro-N2-[3-(N-piperazino)carbonylmethyleneoxyphenyl]-2,4-pyrimidinediamine]
IC50 [1]: 573 nM
IC50 [2]: > 10000 nM
IC50 [3]: 994 nM
IC50 [4]: 1110 nM
IC50 [5]: 1550 nM
IC50 [6]: 1710 nM
IC50 [7]: > 10000 nM

CC(C)Oc1ccc(Nc2nc(Nc3ccc4oc(C(=O)N5CCCC5)cc4c3)ncc2F)cc1 [R926703, 5-Fluoro-N4-(4-isopropoxyphenyl)-N2-[2-(N-pyrrolidino)carbonylbenzofuran-5-yl]-2,4-pyrimidinediamine]
IC50 [1]: 525 nM
IC50 [2]: > 10000 nM
IC50 [3]: 1510 nM
IC50 [4]: 1950 nM
IC50 [5]: > 2000 nM
IC50 [8]: 724 nM
IC50 [6]: > 2000 nM

COC(=O)COc1ccc(Nc2ncc(F)c(Nc3ccc(OCC(=O)OC)cc3)n2)cc1 [R926240, N2,N4-Bis[(4-methoxycarbonylmethyleneoxy)phenyl]-5-fluoro-2,4-pyrimidinediamine]
IC50 [1]: 381 nM
IC50 [9]: 145 nM
IC50 [2]: 1700 nM
IC50 (Jurkat cells): 10000 nM
IC50 (B-cell line BJAB): > 10000 nM

CCOC(=O)COc1ccc(Nc2ncc(C#N)c(Nc3ccc(OCC(=O)OCC)cc3)n2)cc1 [R925775, N2,N4-Bis[4-(ethoxycarbonylmethyleneoxy)phenyl]-5-cyano-2,4-pyrimidinediamine]
IC50 [2]: > 10000 nM
IC50 (Jurkat cells): > 10000 nM
IC50 (B-cell line BJAB): > 10000 nM

N#CCOc1ccc(Nc2nc(Nc3cccc(O)c3)ncc2F)cc1 [R945071, N4-[4-(Cyanomethyleneoxy)phenyl]-5-fluoro-N2-(3-hydroxyphenyl)-2,4-pyrimidinediamine]
IC50 [3]: < 1100 nM
IC50 [4]: < 1100 nM
IC50 [5]: < 1100 nM
IC50 [8]: < 1100 nM
IC50 [6]: < 1100 nM
IC50 [7]: < 1100 nM

Oc1cccc(Nc2nc(Nc3ccc(OCCN4CCOCC4)cc3)ncc2F)c1 [R926699, 5-Fluoro-N4-(3-hydroxyphenyl)-N2-[4-[2-(N-morpholino)ethyleneoxy]phenyl]-2,4-pyrimidinediamine]
IC50 [1]: 760 nM
IC50 [2]: > 10000 nM
IC50 [3]: < 1100 nM
IC50 [4]: < 1100 nM
IC50 [5]: 1440 nM
IC50 [8]: < 1100 nM
IC50 [6]: < 1100 nM
IC50 [7]: 1290 nM

CCOC(=O)COc1ccc(Nc2ncc(Br)c(Nc3cccc(O)c3)n2)cc1 [R926396, 5-Bromo-N2-(4-ethoxycarbonylmethyleneoxyphenyl)-N4-(3-hydroxyphenyl)-2,4-pyrimidinediamine]
IC50 [1]: 700 nM
IC50 [9]: 160 nM
IC50 [2]: 2600 nM
IC50 (Jurkat cells): > 10000 nM
IC50 (B-cell line BJAB): > 10000 nM

CCOC(=O)COc1ccc(Nc2ncc(F)c(Nc3cccc(O)c3)n2)cc1 [R926395, N2-(4-Ethoxycarbonylmethyleneoxyphenyl)-5-fluoro-N4-(3-hydroxyphenyl)-2,4-pyrimidinediamine]
IC50 [1]: 875 nM
IC50 [9]: 290 nM
IC50 [2]: 6400 nM
IC50 (Jurkat cells): > 10000 nM
IC50 (B-cell line BJAB): > 10000 nM

COC(=O)COc1ccc(Nc2ncc(C)c(Nc3ccc(OCC(=O)OC)cc3)n2)cc1 [R926258, N2,N4-Bis(4-methoxycarbonylmethyleneoxyphenyl)-5-methyl-2,4-pyrimidinediamine]
IC50 [1]: 900 nM
IC50 [9]: 590 nM
IC50 [2]: > 10000 nM
IC50 (Jurkat cells): > 10000 nM
IC50 (B-cell line BJAB): > 10000 nM

COC(=O)COc1ccc(Nc2cc(Cl)nc(Nc3ccc(OCC(=O)OC)cc3)n2)cc1 [R926411, N2,N4-Bis(4-methoxycarbonylmethyleneoxyphenyl)-6-chloro-2,4-pyrimidinediamine]
IC50 [1]: 690 nM
IC50 [2]: 2500 nM
IC50 (Jurkat cells): 8500 nM
IC50 (B-cell line BJAB): > 10000 nM

COC(=O)COc1ccc(Nc2ccnc(Nc3ccc(OCC(=O)OC)cc3)n2)cc1 [R926256, N2,N4-Bis[(4-methoxycarbonylmethyleneoxy)phenyl]-2,4-pyrimidinediamine]
IC50 [1]: 275 nM
IC50 [9]: 230 nM
IC50 [2]: 5100 nM
IC50 (Jurkat cells): > 10000 nM
IC50 (B-cell line BJAB): > 10000 nM

CCOC(=O)COc1ccc(Nc2ncc(Br)c(Nc3ccc(OCC(=O)OCC)cc3)n2)cc1 [R925779, N2,N4-Bis[4-(ethoxycarbonylmethyleneoxy)phenyl]-5-bromo-2,4-pyrimidinediamine]
IC50 [1]: 265 nM
IC50 [9]: 190 nM
IC50 [2]: > 10000 nM
IC50 (Jurkat cells): > 10000 nM
IC50 (B-cell line BJAB): > 10000 nM

CCOC(=O)c1cnc(Nc2ccc(OCC(=O)OC)cc2)nc1Nc1ccc(OCC(=O)OC)cc1 [R926253, N2,N4-Bis(4-methoxycarbonylmethyleneoxyphenyl)-5-ethoxycarbonyl-2,4-pyrimidinediamine]
IC50 [1]: 800 nM
IC50 [9]: 675 nM
IC50 (Jurkat cells): > 10000 nM
IC50 (B-cell line BJAB): > 10000 nM

N#CCOc1ccc(Nc2ncc(F)c(Nc3ccc(OCC#N)cc3)n2)cc1 [R945032, N2,N4-Bis[4-(cyanomethyleneoxy)phenyl]-5-fluoro-2,4-pyrimidinediamine]
IC50 [1]: 370 nM
IC50 [2]: > 10000 nM
IC50 [3]: 357 nM
IC50 [4]: 458 nM
IC50 [5]: 439 nM
IC50 [8]: 92.9 nM
IC50 [6]: 1080 nM
IC50 [7]: 291 nM

OCCCn1ncc2cc(Nc3ncc(F)c(Nc4ccc(Cl)c(Cl)c4)n3)ccc21 [R935391]
oral bioavailabilities and half-lives (in words) [10]: good

O=C(c1cc2cc(Nc3ncc(F)c(Nc4cccc(O)c4)n3)ccc2o1)N1CCOCC1 [R926488, 5-Fluoro-N4-(3-hydroxyphenyl)-N2-[2-(N-morpholino)carbonylbenzofuran-5-yl]-2,4-pyrimidinediamine]
IC50 [1]: 331 nM
IC50 [9]: 752 nM
IC50 [2]: > 10000 nM
IC50 [3]: 521 nM
IC50 [4]: 623 nM
IC50 [5]: 792 nM
IC50 [8]: 201 nM
IC50 [6]: 2440 nM
IC50 [7]: 1010 nM
